# Molecular target: T1, recombinant SIRT5 (His-tagged, Millipore) (Homo sapiens, UniProt Q9NXA8)
# T1 sequence (Q9NXA8 37-310): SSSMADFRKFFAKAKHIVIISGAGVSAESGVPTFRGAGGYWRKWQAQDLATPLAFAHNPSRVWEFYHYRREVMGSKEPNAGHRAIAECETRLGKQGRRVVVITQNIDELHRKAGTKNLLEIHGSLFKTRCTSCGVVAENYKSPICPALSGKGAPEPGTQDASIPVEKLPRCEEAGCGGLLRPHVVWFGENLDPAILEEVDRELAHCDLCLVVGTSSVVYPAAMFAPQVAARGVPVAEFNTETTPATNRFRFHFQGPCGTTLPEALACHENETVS
# Experiment: Mass spectrometry determination of covalent labeling
# Assay type: binding
# Conditions: Tris buffer pH 8, 24 h room temperature (7, 8: 37 °C, 48 h)
row,SMILES,covalent conjugate formation with SIRT5 (MALDI-TOF MS)
1,O=C(NCCCC[C@H](NS(=O)(=O)c1cccc(F)c1)C(=O)N[C@@H](Cc1c[nH]c2ccccc12)C(=O)NC1CCC1)c1cccc(S(=O)(=O)F)c1 [compound 2],reacted more readily with SIRT5
2,O=C(NC1CCC1)[C@H](Cc1c[nH]c2ccccc12)NC(=O)[C@H](CCCCNC(=S)Nc1cccc(OS(=O)(=O)F)c1)NS(=O)(=O)c1cccc(F)c1 [compound 7],not significantly enhanced compared to the amide analogs
3,O=C(NC1CCC1)[C@H](Cc1c[nH]c2ccccc12)NC(=O)[C@H](CCCCNC(=S)Nc1ccc(OS(=O)(=O)F)cc1)NS(=O)(=O)c1cccc(F)c1 [compound 8],not significantly enhanced compared to the amide analogs

# From publication PMC9828517 (Angewandte Chemie (International Ed. in English), 2022)
